SMILES strings stand for the structures. Where only a bound is given, the exact number is not on record here.

The subject of this experiment is Jurkat NF-kB luciferase reporter, PMA/ionomycin, luminescence 16 h. In words: blockers of NF-kB activation in T cells – Jurkat, luciferase reporter, luminescence, B- and T-cell, dose response (AID 489004).

As usually defined, the IC50 is the concentration that gives 50% inhibition. Take `CC(=O)OC[C@]12CCC(C)=C[C@H]1O[C@@H]1[C@H](O)[C@@H](OC(C)=O)[C@@]2(C)[C@]12CO2`: the IC50 was under 160 nM.

Values taken from PubChem BioAssay AID489004 (Sanford-Burnham Center for Chemical Genomics, 2010).
